# Results reported in US10966978B2, “Dose and regimen for HDM2-p53 interaction inhibitors” (Novartis AG, priority 2016, dated 2021).
# Where two headings read alike, the source gives them in different places.
# Tested on: patients with advanced TP53 wild-type (WT) leukemias
structure (smiles),measurement,setting,value
"COc1ncc(-c2nc3c(n2C(C)C)[C@H](c2ccc(Cl)cc2)N(c2cc(Cl)cn(C)c2=O)C3=O)c(OC)n1 [HDM201, (S)-5-(5-Chloro-1-methyl-2-oxo-1,2-dihydro-pyridin-3-yl)-6-(4-chloro-phenyl)-2-(2,4-dimethoxy-pyrimidin-5-yl)-1-isopropyl-5,6-dihydro-1H-pyrrolo[3,4-d]imidazol-4-one]",AE: Blood Creatinine Increased,"Regimen 2A N = 7, All Grades",1 (14.3) n (%)
same,AE: Blood Phosphorus Increased,"Regimen 2A N = 7, All Grades",0 n (%)
same,AE: Blood Uric Acid Increased,"Regimen 2A N = 7, All Grades",0 n (%)
same,AE: Bone Marrow Failure,"Regimen 2A N = 7, All Grades",1 (14.3) n (%)
same,AE: C-Reactive Protein Increased,"Regimen 2A N = 7, All Grades",1 (14.3) n (%)
same,AE: Cardiac Failure,"Regimen 2A N = 7, All Grades",0 n (%)
same,AE: Cellulitis,"Regimen 2A N = 7, All Grades",0 n (%)
same,AE: Chronic Graft Versus Host Disease,"Regimen 2A N = 7, All Grades",0 n (%)
same,AE: Conjunctival Haemorrhage,"Regimen 2A N = 7, All Grades",0 n (%)
same,AE: Cough,"Regimen 2A N = 7, All Grades",0 n (%)
same,AE: Cystitis Viral,"Regimen 2A N = 7, All Grades",0 n (%)
same,AE: Cytomegalovirus Infection,"Regimen 2A N = 7, All Grades",1 (14.3) n (%)
same,AE: Decreased Appetite,"Regimen 2A N = 7, All Grades",1 (14.3) n (%)
same,AE: Diarrhoea,"Regimen 2A N = 7, All Grades",0 n (%)
same,AE: Dyspepsia,"Regimen 2A N = 7, All Grades",1 (14.3) n (%)
same,AE: Dyspnoea,"Regimen 2A N = 7, All Grades",0 n (%)
same,AE: Epistaxis,"Regimen 2A N = 7, All Grades",0 n (%)
same,AE: Fatigue,"Regimen 2A N = 7, All Grades",0 n (%)
same,AE: Febrile Neutropenia,"Regimen 2A N = 7, All Grades",2 (28.6) n (%)
same,AE: Gamma-Glutamyltransferase Increased,"Regimen 2A N = 7, All Grades",0 n (%)
same,AE: General Physical Health Deterioration,"Regimen 2A N = 7, All Grades",0 n (%)
same,AE: Gingival Bleeding,"Regimen 2A N = 7, All Grades",0 n (%)
same,AE: Graft Versus Host Disease,"Regimen 2A N = 7, All Grades",0 n (%)
same,AE: Haemoglobin Decreased,"Regimen 2A N = 7, All Grades",0 n (%)
same,AE: Headache,"Regimen 2A N = 7, All Grades",0 n (%)
same,AE: Hyperbilirubinaemia,"Regimen 2A N = 7, All Grades",1 (14.3) n (%)
same,AE: Hyperglycaemia,"Regimen 2A N = 7, All Grades",0 n (%)
same,AE: Hyperkalaemia,"Regimen 2A N = 7, All Grades",0 n (%)
same,AE: Hyperphosphataemia,"Regimen 2A N = 7, All Grades",0 n (%)
same,AE: Hyperuricaemia,"Regimen 2A N = 7, All Grades",1 (14.3) n (%)
same,AE: Hypoalbuminaemia,"Regimen 2A N = 7, All Grades",0 n (%)
same,AE: Hypocalcaemia,"Regimen 2A N = 7, All Grades",0 n (%)
same,AE: Hypokalaemia,"Regimen 2A N = 7, All Grades",0 n (%)
same,AE: Hypomagnesaemia,"Regimen 2A N = 7, All Grades",0 n (%)
same,AE: Hyponatraemia,"Regimen 2A N = 7, All Grades",0 n (%)
same,AE: Hypophosphataemia,"Regimen 2A N = 7, All Grades",0 n (%)
same,AE: Hypotension,"Regimen 2A N = 7, All Grades",0 n (%)
same,AE: Infection,"Regimen 2A N = 7, All Grades",0 n (%)
same,AE: Infective Glossitis,"Regimen 2A N = 7, All Grades",0 n (%)
same,AE: Iron Overload,"Regimen 2A N = 7, All Grades",0 n (%)
same,AE: Leukopenia,"Regimen 2A N = 7, All Grades",0 n (%)
same,AE: Lip Oedema,"Regimen 2A N = 7, All Grades",0 n (%)
same,AE: Lipase Increased,"Regimen 2A N = 7, All Grades",0 n (%)
same,AE: Macular Oedema,"Regimen 2A N = 7, All Grades",0 n (%)
same,AE: Malaise,"Regimen 2A N = 7, All Grades",1 (14.3) n (%)
same,AE: Mouth Haemorrhage,"Regimen 2A N = 7, All Grades",0 n (%)
same,AE: Nausea,"Regimen 2A N = 7, All Grades",3 (42.9) n (%)
same,AE: Neutropenia/Neutrophil Count Decreased,"Regimen 2A N = 7, All Grades",1 (14.3) n (%)
same,AE: Oedema,"Regimen 2A N = 7, All Grades",0 n (%)
same,AE: Oedema Peripheral,"Regimen 2A N = 7, All Grades",0 n (%)
same,AE: Oral Disorder,"Regimen 2A N = 7, All Grades",0 n (%)
same,AE: Pain In Extremity,"Regimen 2A N = 7, All Grades",0 n (%)
same,AE: Pancytopenia,"Regimen 2A N = 7, All Grades",0 n (%)
same,AE: Pneumonia,"Regimen 2A N = 7, All Grades",0 n (%)
same,AE: Pollakiuria,"Regimen 2A N = 7, All Grades",0 n (%)
same,AE: Pyrexia,"Regimen 2A N = 7, All Grades",1 (14.3) n (%)
same,AE: Rash,"Regimen 2A N = 7, All Grades",0 n (%)
same,AE: Rash Erythematous,"Regimen 2A N = 7, All Grades",0 n (%)
same,AE: Rash Papular,"Regimen 2A N = 7, All Grades",0 n (%)
same,AE: Rectal Haemorrhage,"Regimen 2A N = 7, All Grades",0 n (%)
same,AE: Renal Failure,"Regimen 2A N = 7, All Grades",0 n (%)
same,AE: Skin Exfoliation,"Regimen 2A N = 7, All Grades",0 n (%)
same,AE: Stomatitis,"Regimen 2A N = 7, All Grades",0 n (%)
same,AE: Subarachnoid Haemorrhage,"Regimen 2A N = 7, All Grades",0 n (%)
same,AE: Thrombocytopenia/Platelet Count Decreased,"Regimen 2A N = 7, All Grades",2 (28.6) n (%)
same,AE: Total,"Regimen 2A N = 7, All Grades",5 (71.4) n (%)
same,AE: Tumour Lysis Syndrome,"Regimen 2A N = 7, All Grades",1 (14.3) n (%)
same,AE: Vomiting,"Regimen 2A N = 7, All Grades",1 (14.3) n (%)
same,AE: Weight Decreased,"Regimen 2A N = 7, All Grades",0 n (%)
same,AE: White Blood Cell Count Decreased,"Regimen 2A N = 7, All Grades",1 (14.3) n (%)
same,AE: Abdominal Discomfort,"Regimen 2A N = 7, Grade 3/4",0 n (%)
same,AE: Abdominal Pain,"Regimen 2A N = 7, Grade 3/4",0 n (%)
same,AE: Abdominal Pain Upper,"Regimen 2A N = 7, Grade 3/4",0 n (%)
same,AE: Acute Kidney Injury,"Regimen 2A N = 7, Grade 3/4",0 n (%)
same,AE: Amylase Increased,"Regimen 2A N = 7, Grade 3/4",0 n (%)
same,AE: Anaemia,"Regimen 2A N = 7, Grade 3/4",2 (28.6) n (%)
same,AE: Arthralgia,"Regimen 2A N = 7, Grade 3/4",0 n (%)
same,AE: Asthenia,"Regimen 2A N = 7, Grade 3/4",0 n (%)
same,AE: Atrial Fibrillation,"Regimen 2A N = 7, Grade 3/4",0 n (%)
same,AE: Atypical Pneumonia,"Regimen 2A N = 7, Grade 3/4",0 n (%)
same,AE: Balanitis Candida,"Regimen 2A N = 7, Grade 3/4",0 n (%)
same,AE: Blood Alkaline Phosphatase Increased,"Regimen 2A N = 7, Grade 3/4",0 n (%)
same,AE: Blood Bilirubin Increased,"Regimen 2A N = 7, Grade 3/4",0 n (%)
same,AE: Blood Creatinine Increased,"Regimen 2A N = 7, Grade 3/4",0 n (%)
same,AE: Blood Phosphorus Increased,"Regimen 2A N = 7, Grade 3/4",0 n (%)
same,AE: Blood Uric Acid Increased,"Regimen 2A N = 7, Grade 3/4",0 n (%)
same,AE: Bone Marrow Failure,"Regimen 2A N = 7, Grade 3/4",1 (14.3) n (%)
same,AE: C-Reactive Protein Increased,"Regimen 2A N = 7, Grade 3/4",1 (14.3) n (%)
same,AE: Cardiac Failure,"Regimen 2A N = 7, Grade 3/4",0 n (%)
same,AE: Cellulitis,"Regimen 2A N = 7, Grade 3/4",0 n (%)
same,AE: Chronic Graft Versus Host Disease,"Regimen 2A N = 7, Grade 3/4",0 n (%)
same,AE: Conjunctival Haemorrhage,"Regimen 2A N = 7, Grade 3/4",0 n (%)
same,AE: Cough,"Regimen 2A N = 7, Grade 3/4",0 n (%)
same,AE: Cystitis Viral,"Regimen 2A N = 7, Grade 3/4",0 n (%)
same,AE: Cytomegalovirus Infection,"Regimen 2A N = 7, Grade 3/4",0 n (%)
same,AE: Decreased Appetite,"Regimen 2A N = 7, Grade 3/4",0 n (%)
same,AE: Diarrhoea,"Regimen 2A N = 7, Grade 3/4",0 n (%)
same,AE: Dyspepsia,"Regimen 2A N = 7, Grade 3/4",0 n (%)
same,AE: Dyspnoea,"Regimen 2A N = 7, Grade 3/4",0 n (%)
same,AE: Epistaxis,"Regimen 2A N = 7, Grade 3/4",0 n (%)
same,AE: Fatigue,"Regimen 2A N = 7, Grade 3/4",0 n (%)
same,AE: Febrile Neutropenia,"Regimen 2A N = 7, Grade 3/4",2 (28.6) n (%)
same,AE: Gamma-Glutamyltransferase Increased,"Regimen 2A N = 7, Grade 3/4",0 n (%)
same,AE: General Physical Health Deterioration,"Regimen 2A N = 7, Grade 3/4",0 n (%)
same,AE: Gingival Bleeding,"Regimen 2A N = 7, Grade 3/4",0 n (%)
same,AE: Graft Versus Host Disease,"Regimen 2A N = 7, Grade 3/4",0 n (%)
